Three compounds from patent US7863465B2, “Antifungal agents” (Merck Sharp & Dohme Corp., priority 2006, dated 2011) can be followed below.

Where a name gives a salt, the structure may show the parent alone.

T1 sequence (O13428 1-1897): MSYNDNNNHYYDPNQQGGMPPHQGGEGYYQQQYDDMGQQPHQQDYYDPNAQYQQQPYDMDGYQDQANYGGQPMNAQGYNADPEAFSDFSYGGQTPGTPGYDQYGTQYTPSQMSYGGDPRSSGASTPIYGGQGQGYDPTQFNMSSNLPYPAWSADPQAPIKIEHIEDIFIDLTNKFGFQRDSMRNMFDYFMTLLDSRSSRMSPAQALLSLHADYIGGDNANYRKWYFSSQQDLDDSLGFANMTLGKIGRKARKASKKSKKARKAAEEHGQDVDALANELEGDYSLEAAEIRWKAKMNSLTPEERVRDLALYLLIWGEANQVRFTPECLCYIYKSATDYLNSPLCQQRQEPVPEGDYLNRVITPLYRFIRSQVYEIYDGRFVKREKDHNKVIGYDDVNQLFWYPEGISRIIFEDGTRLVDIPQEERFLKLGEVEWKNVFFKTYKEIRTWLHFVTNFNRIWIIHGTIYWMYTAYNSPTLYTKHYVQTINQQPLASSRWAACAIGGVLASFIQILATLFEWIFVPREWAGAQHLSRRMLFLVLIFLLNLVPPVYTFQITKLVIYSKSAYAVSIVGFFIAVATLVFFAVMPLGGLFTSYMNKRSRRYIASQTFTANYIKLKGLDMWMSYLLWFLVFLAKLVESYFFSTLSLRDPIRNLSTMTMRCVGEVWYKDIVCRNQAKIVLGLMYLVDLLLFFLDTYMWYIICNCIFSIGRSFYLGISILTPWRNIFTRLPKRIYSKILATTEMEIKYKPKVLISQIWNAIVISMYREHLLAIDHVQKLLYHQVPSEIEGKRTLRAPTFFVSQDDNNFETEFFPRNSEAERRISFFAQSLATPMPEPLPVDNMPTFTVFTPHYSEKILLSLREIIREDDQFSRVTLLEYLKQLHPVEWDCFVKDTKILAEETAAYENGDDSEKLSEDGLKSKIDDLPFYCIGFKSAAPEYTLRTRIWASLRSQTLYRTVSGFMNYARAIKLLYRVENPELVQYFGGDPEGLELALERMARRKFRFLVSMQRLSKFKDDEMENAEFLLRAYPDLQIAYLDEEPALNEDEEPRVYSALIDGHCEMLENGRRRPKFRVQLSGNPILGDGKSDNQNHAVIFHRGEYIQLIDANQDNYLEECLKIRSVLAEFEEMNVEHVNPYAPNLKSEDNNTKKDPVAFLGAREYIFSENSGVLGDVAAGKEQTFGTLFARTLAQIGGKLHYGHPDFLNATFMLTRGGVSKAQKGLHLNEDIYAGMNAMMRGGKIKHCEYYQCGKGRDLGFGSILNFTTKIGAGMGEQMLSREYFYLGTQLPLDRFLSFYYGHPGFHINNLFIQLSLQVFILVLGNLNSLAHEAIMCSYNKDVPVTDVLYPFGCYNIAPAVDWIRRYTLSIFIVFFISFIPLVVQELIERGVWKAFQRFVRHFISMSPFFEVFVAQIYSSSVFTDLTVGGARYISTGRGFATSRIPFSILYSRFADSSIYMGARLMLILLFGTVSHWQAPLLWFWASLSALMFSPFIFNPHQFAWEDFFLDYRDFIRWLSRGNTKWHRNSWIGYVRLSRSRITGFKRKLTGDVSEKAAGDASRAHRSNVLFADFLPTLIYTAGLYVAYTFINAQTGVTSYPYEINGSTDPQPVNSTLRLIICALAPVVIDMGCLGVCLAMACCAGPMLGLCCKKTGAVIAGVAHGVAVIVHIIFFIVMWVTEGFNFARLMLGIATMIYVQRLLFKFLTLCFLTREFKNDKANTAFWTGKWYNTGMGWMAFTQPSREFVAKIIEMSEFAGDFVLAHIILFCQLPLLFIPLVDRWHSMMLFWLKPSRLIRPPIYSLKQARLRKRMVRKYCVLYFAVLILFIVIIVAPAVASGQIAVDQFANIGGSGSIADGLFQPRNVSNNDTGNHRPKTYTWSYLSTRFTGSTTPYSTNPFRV
T1 sequence (O42825 whole entry partner): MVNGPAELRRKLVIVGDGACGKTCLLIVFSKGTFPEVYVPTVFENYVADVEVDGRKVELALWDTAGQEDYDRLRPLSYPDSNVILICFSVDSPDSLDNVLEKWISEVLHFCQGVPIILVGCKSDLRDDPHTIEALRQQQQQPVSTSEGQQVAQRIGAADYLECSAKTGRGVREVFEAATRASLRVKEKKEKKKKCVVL

This assay concerns the target T1, glucan synthase (GS) prepared from Candida albicans MY1055 (Candida albicans, UniProt O13428).
T1 construct: Extraction of GS activity from membranes was performed at a protein concentration of 5 mg/mL in extraction buffer; endogenous in cells; host or cells: Candida albicans MY1055 (membranes, detergent extract, product entrapment)
In words: Glucan synthase inhibition (polymerization assay, 96-well, 3H-UDPG incorporation). To be noted: glucan synthase from C. albicans MY1055. It counts as biochemical. As for the experimental part: The in vitro evaluation of glucan synthase inhibitory activity of compounds was measured in a polymerization assay in 96-well format. Each well contained 100 μL of ^3H-UDPG at 0.5 mM (6000 to 8000 dpm/nmol), 50 mM HEPES pH 7.5 (Sigma), 10% w/v glycerol (Sigma), 1.5 mg/mL bovine serum albumin (Sigma A 9647. Lot 44H0190), 25 mM KF (Fisher), 1 mM EDTA (Gibco Ultrapure), 25 μM GTP-γ-S, enzyme sufficient to give 3 to 6 nmoles incorporation during the 60 min incubation at 22° C., and test compound added from wells in 3-fold serial dilutions in 100% DMSO (1 μL/well). The reaction was stopped by the addition of 100 μL of 20% trichloroacetic acid. Plates were chilled for a minimum of 10 min, and precipitated glucan collected by filtration on GF/C plates (Packard Unifilter®-96), washed with 5 cycles of water (about 1 mL/well each cycle) using a Packard Filtermate Harvester. 40 μL/well scintillation fluid (Packard Ultima Gold TM-XR) was added and the sealed plates counted in a Wallac Beta counter in top-counting mode at an efficiency of approximately 40%.
Stock solutions were stored at 10 mg/mL in DMSO at −20° C. For each new enzyme preparation, the initial titration performed started at 1 mg/mL, which was prepared by making a 10-fold dilution in DMSO (5 μL to 50 μL). 40 μL of this stock was placed in column 12 of a round-bottomed 96-well microtiter plate. 40 μL DMSO was added to columns 1 to 11 in the same row and ten 3-fold serial dilutions performed, by transferring 20 μL from column 12 to column 11 etc., with 4 mixings before each transfer. No test compound was transferred to from column 2 to column 1. Duplicate aliquots of 1 μL of all 12 dilutions were then transferred to the side walls of a 96-well Bioblock 1.1 mL plate (Fisherbrand) to create two rows.
The results were tabulated and a standard plate background was subtracted and the net count transpose-pasted into a Prism file, with final compound concentrations used in ng/mL. Graphs were created in Prism software, using the average of two determinations, and using Prism's curve fitting program (sigmoidal dose response non-linear regression).
Routine analysis was performed with glucan synthase (GS) prepared from Candida albicans MY1055 by the following procedure: MY1055 was grown in 10 liters YPD medium (10 g yeast extract, 20 g tryptone, 20 g glucose per liter) with vigorous shaking at 30° C., to early stationary phase. Cells were harvested by centrifugation, the pellet was washed and frozen at −70° C. until breakage. Thawed pellets were shaken with an equal volume of breakage buffer (50 mM HEPES pH 7.4, 10% glycerol, 1 mM EDTA, 1 mM PMSF, 1 mM DTT) and 4 times their weight of 0.5 mm acid washed glass beads for 2 hours at 4° C. Extent of breakage was assessed visually at 40× magnification. For C. parapsilosis strains, shaking was extended to 3 hours to maximize breakage. After low speed centrifugation to remove cell debris, the supernatant was centrifuged at 100,000×g for 60 min. to separate membranes plus ribosomes from cytoplasmic components. Membranes were further washed two additional times with breakage buffer using the same centrifugation conditions and finally suspended in breakage buffer at 25 to 30 mg/mL protein (Biorad) for storage at −70° C. Extraction of GS activity from membranes was performed at a protein concentration of 5 mg/mL in extraction buffer (50 mM NaPO4 pH 7.5, 0.1 M KCl, 0.1M Na citrate, 20% glycerol, 5 μM GTP-γ-S, 1 mM DTT, 1 mM PMSF, 3 μg/mL pepstatin) plus 0.25% W1 by gentle mixing at 4° C. for 60 min, followed by centrifugation at 100,000×g for 60 min. After centrifugation, clear supernatant was removed from a pellet consisting of a hard layer usually with small amounts of gelatinous unextracted membranes above it. […]
Take `CC(=O)O[C@@H]1C[C@@]23COC[C@](C)([C@@H]2CC[C@H]2C3=CC(=O)[C@@]3(C)[C@H](C(=O)O)[C@@](C)([C@H](C)C(C)C)CC[C@]23C)[C@H]1OC[C@](C)(N)C(C)C` [Example 151, (1S,2R,3R,4aR,6aS,7R,8R,10aR,10bR,12aR)-3-acetoxy-2-[[(2R)-2-amino-2,3-dimethylbutyl]oxy]-8-[(1R)-1,2-dimethylpropyl]-1,6a,8,10a-tetramethyl-6-oxo-1,3,4,6,6a,7,8,9,10,10a,10b,11,12,12a-tetradecahydro-2H-1,4a-(methanooxymethano)chrysene-7-carboxylic acid (fumaric acid salt)]: the concentration for half-maximal inhibition (IC50) was 17.1 nM.

`CN[C@@](C)(CO[C@H]1[C@H](OC(C)=O)C[C@@]23COC[C@]1(C)[C@@H]2CC[C@H]1C3=CC(=O)[C@@]2(C)[C@H](C(=O)O)[C@@](C)([C@H](C)C(C)C)CC[C@]12C)C(C)C` [Example 152, (1S,2R,3R,4aR,6aS,7R,8R,10aR,10bR,12aR)-3-acetoxy-2-[[(2R)-2-methylamino-2,3-dimethylbutyl]oxy]-8-[(1R)-1,2-dimethylpropyl]-1,6a,8,10a-tetramethyl-6-oxo-1,3,4,6,6a,7,8,9,10,10a,10b,11,12,12a-tetradecahydro-2H-1,4a-(methanooxymethano)chrysene-7-carboxylic acid (fumaric acid salt)] gave an IC50 of 13.7 nM.

Turning to `CC(=O)O[C@@H]1C[C@@]23COC[C@](C)([C@@H]2CC[C@H]2C3=CC(=O)[C@@]3(C)[C@H](C(=O)O)[C@@](C)([C@H](C)C(C)C)CC[C@]23C)[C@H]1OC[C@@](C)(C(C)C)N(C)C` [Example 153, (1S,2R,3R,4aR,6aS,7R,8R,10aR,10bR,12aR)-3-acetoxy-2-[[(2R)-2-dimethylamino-2,3-dimethylbutyl]oxy]-8-[(1R)-1,2-dimethylpropyl]-1,6a,8,10a-tetramethyl-6-oxo-1,3,4,6,6a,7,8,9,10,10a,10b,11,12,12a-tetradecahydro-2H-1,4a-(methanooxymethano)chrysene-7-carboxylic acid (fumaric acid salt)], the IC50 was 26.8 nM. Compared with the last compound, the IC50 is about 2-fold higher.
